Read-outs that look alike come from different tables or passages of the source.
Assays:
[1] = system: PC-3 prostate adenocarcinoma cells; test: MTT cell viability assay, PC-3; conditions: 72 h; for IC50 / viability at 10 µM: Homo sapiens; for viability at 10 µM: read-out: cell viability percentage in relation to control, PC-3; for SI PC-3 (selectivity index versus NHDF): PC-3 versus NHDF
Experimental: To evaluate the anticancer potential of monomethine cyanine dyes 1–12, a cell proliferation study was conducted using the 3-(4,5-dimethylthiazol-2-yl)-2,5-diphenyltetrazolium bromide (MTT) assay. For this preliminary evaluation, a concentration of 10 µM for each dye was tested, with the well-established chemotherapy agent 5-fluorouracil (5-FU) serving as a positive control. The assay included normal human dermal fibroblasts (NHDF) as non-tumor cells, alongside tumor cell lines from colorectal (Caco-2), prostate (PC-3), and breast (MCF-7) adenocarcinomas.
The cell lines used in this study (Caco-2, MCF-7, PC-3, and NHDF) were obtained from the American Type Culture Collection (ATCC, Manassas, VA, USA) and cultured in 75 cm^2 culture flasks at 37 °C in a humidified atmosphere with 5% CO2 in a LEEC Culture Safe Precision CO2 Incubator. PC-3 cells were grown in Roswell Park Memorial Institute (RPMI) medium supplemented with 10% of inactivated Fetal Bovine Serum (FBS) and 1% of an antibiotic mixture (Sp; 10,000 U/mL of penicillin G and […] of streptomycin). MCF-7 and Caco-2 cell lines were both cultured using Dulbecco’s Modified Eagle Medium (DMEM). However, the medium for MCF-7 cells was complemented with 10% of inactivated FBS and 1% of antibiotic/antimycotic mixture (Ab; 10,000 U/mL of penicillin G, […] of streptomycin and 25 µg/mL of amphotericin B), and the medium for Caco-2 cells was supplemented with 20% of inactivated FBS and 1% of Sp. Finally, RPMI medium supplemented with 10% FBS, 2 mM of L-glutamine, 10 mM of 4-(2-hydroxyethyl)-1-piperazineethanesulfonic acid (HEPES), 1 mM of sodium pyruvate, and 1% of Ab was used to culture NHDF cells. The culture media were renewed every two to three days until near confluence was achieved. Then, cells were detached using a solution of 0.125 g/L of trypsin and 0.02 g/L of ethylenediaminetetracetic acid (EDTA), counted by the trypan blue method, resuspended, and adequately seeded to continue the culture in 75 cm^2 flasks or for the experiments described below. All manipulations were performed in a Labculture Class II A2 Biological Safety Cabinet.
After trypsinization, cells were seeded in 96-well culture plates (100 µL; 2 × 10^4 cells/mL), and after 48 h (for adherence), they were incubated with the compounds under study in the absence of light for a duration of 72 h. Then, the medium was removed, and fresh incomplete culture medium (without FBS and Ab or Sp) and MTT solution [5 mg/mL in phosphate buffer saline (PBS)] were added to each well, followed by 4 h of incubation. After this, the medium containing MTT was removed and DMSO was added to dissolve formazan crystals. The absorbance of each well at 570 nm was determined using a microplate spectrophotometer Bio-Rad (Hercules, CA, USA) xMark. Untreated cells were considered the negative control, and 5-FU, a clinically used drug, was considered the positive control. For data analysis, the relative cell proliferation relative to the negative control cells was calculated. For each cell viability study, at least two independent assays in quadruplicate were performed. Increasing concentrations of the compounds between 0.001 and 100 μM were used to determine the IC50 values.

Caco-2 cells [2] = test: Cell cycle distribution by PI staining and flow cytometry; type: cell-based, human
Experimental: After excluding sub-G1 events, we proceeded to evaluate the impact of dyes 5 and 10 on cell cycle distribution.
Apoptosis (sub-G1 events) and cell cycle distribution were evaluated by propidium iodide (PI) staining and flow cytometry, as described by Riccardi and Nicolleti. After 48 h of Caco-2 cells (2 mL; 3 × 10^4 cells/mL) adherence in 6-well plates, the culture medium was substituted with the test solutions (3 mL and 5 mL for negative control) and incubated for a further 72 or 120 h. Untreated cells were used as the negative control, and sorbitol and 5-FU were used as positive controls. After incubation, the supernatant was collected in a centrifuge tube, cells were washed with PBS, trypsinized and wells were once again washed with PBS. This cell suspension was maintained on ice, centrifugated at 300 g for 5 min, and then the pellet was resuspended in 0.5 mL of PBS. Cells were fixed by adding 4.5 mL of 70% ethanol cooled at −20 °C on ice and were stored at −20 °C for a period ranging from one to a few days. On the day of flow cytometry analysis, PBS was added to the fixed cell tubes, followed by centrifugation and removal of the supernatant. The pellet was resuspended in 0.5 mL of PBS and 0.5 mL of DNA extraction solution (192 mL of 0.2 M sodium phosphate and 8 mL of 0.1% Triton X-100, pH 7.8). After incubation for 5 min, the cells were once again centrifuged, the supernatant was removed, and the pellet was resuspended in 0.3 mL of staining solution (20 µg/mL of PI and 0.2 mg/mL of DNase-free RNase in PBS). Using a FACSCalibur flow cytometer (Becton Dickinson, Franklin Lakes, NJ, USA) with a 488 nm laser line, a minimum of 20,000 events were acquired and recorded using the BD CellQuestTM Pro 4.0.2 software, and analyzed with FlowJo 10.5.3 software. To exclude debris and necrotic cells, events with a lower diameter (forward scatter; FCS) and PI fluorescence (FL3) than the hypodiploid apoptotic cells were eliminated (Figures S1 and S2). Two independent experiments were performed. A Student’s t-test was performed to evaluate the statistical significance of the results.

[3] = molecular target: T1, topoisomerase II (Topo II) (Homo sapiens, UniProt P11388); test: Topoisomerase II inhibitory assay (pRYG DNA relaxation, agarose gel); type: biochemical; conditions: 50 µM, 5.0 units Topo II, 250.0 ng pRYG DNA, mean ± SD of two assays
T1 construct: purchased TopoGEN Inc. (Buena Vista, CO, USA) 1009-1
Experimental: To do so, the impact of cyanines on Topo II activity was assessed using a pRYG DNA substrate in the presence and absence of the dyes. This was monitored via a Topo II drug screening kit followed by agarose gel electrophoresis. […] All samples applied to the agarose gel contained 5.0 units of Topo II and 250.0 ng of pRYG DNA as the substrate. Linear pRYG DNA (Lane DNA marker) served as the reference control for the DNA band positions, and 50 µM VP-16 (Lane 3) was used as a positive control. […]
The formation of relaxed DNA products, indicating Topo II activity, is visible in Lane 1 (incubation of pRYG DNA with Topo II) of Figure 8A. […] The intensity of the relaxed DNA bands from two independent experiments was quantified for all samples and normalized to the Topo II activity in the absence of inhibitors (No drug sample, Lane 1) using Image Lab, Version 6.1 (Figure 8B). […]
Cyanine stock solutions in DMSO were further diluted with Tris-HCl (DMSO:Tris-HCl–1:9) to the concentrations desired for assays. […] Electrophoresis was run at 110 V for 40 min and analyzed under ultraviolet (UV) light using a FireReader Imaging System (UVITEC, Cambridge, UK). Band intensities were measured using the software Image Lab, Version 6.1 (BioRad Laboratories, Hercules, CA, USA). […]

Caco-2 cells [4] = test: Caco-2 morphological analysis (optical microscopy); conditions: 72 h
Experimental: Sorbitol and 5-FU were used as positive controls, while untreated cells served as the negative control.
Caco-2 cells near confluency were trypsinized, counted, and then seeded at 3 × 10^4 cells/mL (3 mL) in 35 mm cell culture dishes previously treated for tissue culture. After cell adherence (48 h), they were incubated with solutions under study for 72 h in the absence of light. The cellular morphology was verified every 24 h using a CKX41 SF inverted microscope (Olympus, Tokyo, Japan) with 10, 20, or 40× objectives. A DC6 V digital camera (Olympus, Tokyo, Japan) coupled to the microscope was used to capture cell imaging. The morphology of cells in the presence or absence of treatments was compared.

[5] = read-out: IC50 PC-3, PC-3, 72 h incubation, MTT

T1 sequence (P11388 whole entry): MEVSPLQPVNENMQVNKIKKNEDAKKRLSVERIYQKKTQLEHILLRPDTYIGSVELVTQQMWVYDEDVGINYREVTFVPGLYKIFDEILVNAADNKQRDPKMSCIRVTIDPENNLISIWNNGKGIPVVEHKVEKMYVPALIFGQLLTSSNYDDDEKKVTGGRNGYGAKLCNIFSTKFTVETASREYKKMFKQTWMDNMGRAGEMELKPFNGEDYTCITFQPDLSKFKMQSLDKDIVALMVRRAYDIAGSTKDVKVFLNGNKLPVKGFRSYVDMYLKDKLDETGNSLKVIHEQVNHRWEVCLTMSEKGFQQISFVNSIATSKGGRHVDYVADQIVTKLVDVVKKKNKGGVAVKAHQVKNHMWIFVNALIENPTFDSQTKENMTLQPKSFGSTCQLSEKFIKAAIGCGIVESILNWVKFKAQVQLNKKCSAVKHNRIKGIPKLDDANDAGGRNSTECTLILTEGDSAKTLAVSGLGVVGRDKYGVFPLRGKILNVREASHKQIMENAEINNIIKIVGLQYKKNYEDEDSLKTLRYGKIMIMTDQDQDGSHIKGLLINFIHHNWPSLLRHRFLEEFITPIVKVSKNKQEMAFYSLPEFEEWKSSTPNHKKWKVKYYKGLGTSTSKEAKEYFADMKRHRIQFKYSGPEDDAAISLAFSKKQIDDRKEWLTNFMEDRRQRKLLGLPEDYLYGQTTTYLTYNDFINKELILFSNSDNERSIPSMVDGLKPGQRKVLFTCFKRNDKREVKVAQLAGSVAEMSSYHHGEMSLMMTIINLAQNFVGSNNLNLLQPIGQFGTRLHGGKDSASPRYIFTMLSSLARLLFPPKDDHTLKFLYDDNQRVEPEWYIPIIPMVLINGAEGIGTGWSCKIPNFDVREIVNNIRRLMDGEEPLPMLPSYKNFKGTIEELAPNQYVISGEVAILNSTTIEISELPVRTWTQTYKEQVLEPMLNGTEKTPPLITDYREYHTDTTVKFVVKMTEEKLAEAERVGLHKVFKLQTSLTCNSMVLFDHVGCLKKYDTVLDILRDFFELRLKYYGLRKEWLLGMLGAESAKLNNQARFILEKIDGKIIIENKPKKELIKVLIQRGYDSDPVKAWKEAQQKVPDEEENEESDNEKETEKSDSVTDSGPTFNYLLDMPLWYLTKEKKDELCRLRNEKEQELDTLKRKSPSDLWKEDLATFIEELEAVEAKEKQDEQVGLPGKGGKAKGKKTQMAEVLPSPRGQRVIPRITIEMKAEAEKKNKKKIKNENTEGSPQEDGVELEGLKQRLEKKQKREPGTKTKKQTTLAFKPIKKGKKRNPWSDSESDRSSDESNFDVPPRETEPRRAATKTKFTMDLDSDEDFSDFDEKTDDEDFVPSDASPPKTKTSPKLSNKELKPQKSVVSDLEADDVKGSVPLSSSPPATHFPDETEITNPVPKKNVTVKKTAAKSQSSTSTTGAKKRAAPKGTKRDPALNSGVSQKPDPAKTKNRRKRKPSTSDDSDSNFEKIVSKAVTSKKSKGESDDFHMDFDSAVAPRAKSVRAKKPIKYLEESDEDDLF

Row | Compound | IC50 ([1]; read-out: IC50 PC-3) | viability at 10 µM [1] | SI PC-3 (selectivity index versus NHDF) [1] | proportion of cells in G0/G1 phase (Caco-2 cells [2]; Caco-2, 10 µM, 72 h) | proportion of cells in S phase (Caco-2 cells [2]; Caco-2, 10 µM, 72 h) | IC50 [1, 5] | proportion of cells in G2/M phase (Caco-2 cells [2]; Caco-2, 10 µM, 72 h) | relative intensity of relaxed DNA band (normalized to No drug sample) [3] | morphological changes of Caco-2 cells (Caco-2 cells [4]; 10 µM) | effect on cell cycle distribution (Caco-2 cells [2]; Caco-2, 1 µM, 72 and 120 h) | morphological changes of Caco-2 cells (Caco-2 cells [4]; 1 µM)
1 | O=c1[nH]cc(F)c(=O)[nH]1 [5-FU, 5-fluorouracil, reference compound] | 2430 nM | 20.5 ± 2.3% | 1.9 | 10.1% | around 80.3% |  |  |  |  |  | 
2 | CCN1C(=Cc2sc3cc([N+](=O)[O-])ccc3[n+]2CC)Sc2ccccc21.Cc1ccc(S(=O)(=O)[O-])cc1 [Dye 10, 3-Ethyl-2-((3-ethylbenzo[d]thiazol-2(3H)-ylidene)methyl)-6-nitrobenzo[d]thiazol-3-ium 4-methylbenzenesulfonate] |  | 14.4 ± 1.6% | 3.8 | approximately 62.0% |  | 5930 nM | 6.6% | 0.65 ± 0.024 | noticeable reduction in the size of Caco-2 cells |  | 
3 | CN1C(=Cc2oc3ccccc3[n+]2C)C=Cc2ccccc21.Cc1ccc(S(=O)(=O)[O-])cc1 [Dye 5, 3-Methyl-2-((1-methylquinolin-2(1H)-ylidene)methyl)benzo[d]oxazol-3-ium 4-methylbenzenesulfonate] |  | 3.47 ± 0.95% | 1.9 |  |  | 1430 nM |  | 0.31 ± 0.063 |  | did not significantly alter the cell cycle distribution | a few apoptotic bodies
